This test has as its system Connaught BCG within primary CD14+ human monocytes. It counts as cell-based.

The values that follow come from patent US20240100133A1, “ENZYMATICALLY INACTIVE GRANZYME A AND USES THEREFORE” (Saint Louis University, priority 2022, published 2024).

As to PACMA-31 [reference compound], the “effect of PDIA1 inhibitor on GzmA-mediated mycobacterial inhibition, BCG” value (PACMA-31 200 nM or Rutin 50 μM pretreatment combined with GzmA-WT) is “enhanced mycobacterial inhibitory activity”. In addition, the “intracellular bacterial burden, PDIA1 inhibitor alone” value (PACMA-31 200 nM or Rutin 50 μM, 30 min pretreatment, no GzmA) is reported as “did not influence the intracellular bacterial burden”.
